Experimental data from patent US6288091A, “Antiherpes virus compounds and methods for their preparation and use” (Boehringer Ingelheim Ltd., priority 1999, dated 2001).

Experiments:
[1] = tested on: HSV-1 strain F or KOS; test: Inhibition of herpes simplex virus (HSV-1) replication in cell culture (BHK-21 cells, glycoprotein C ELISA); format: cell-based
Method: B) Inhibition of Herpes Simplex Virus (HSV-1) Replication in Cell Culture
BHK-21 cells clone 13 (ATCC CCL10) were incubated for two days in 850 cm^2 roller bottles (2×10^7 cells/bottle) with A-MEM medium (Gibco Canada Inc., Burlington, Ontario, Canada) supplemented with 8% (v/v) fetal bovine serum (FBS, Gibco Canada, Inc.). The cells were trypsinized and then 3,000 cells in 100 μL of fresh medium were transferred into each well of a 96-well microtiter plate. The cells were incubated at […] for a period of 3 days to reach a density of 50,000 cells per well. The cells were washed twice with 100 μL of α-MEM supplemented with 2% heat inactivated FBS and incubated for 1-2 hours in 100 μL of the same medium.
Thereafter, the cells were infected with HSV-1 strain F or KOS (multiplicity of infection =0.05 PFU/cell) in 50 μL of α-MEM supplemented with 2% heat inactivated FBS. Following one hour of virus absorption at 37°, the medium was removed and the cells were washed with α-MEM supplemented with 2% heat inactivated FBS (2×100 μL). The cells were incubated with or without 100 μL of the appropriate concentration of test reagent in α-MEM medium supplemented with 2% heat inactivated FBS. After 24 hours of incubation at 37°, the extent of viral replication was determined by an ELISA assay; for instance, the following assay that detects the late glycoprotein C of HSV-1.
Cells were fixed in the microtiter plate with 100 μL of 0.063% glutaraldehyde in phosphate buffered saline for 30 min at room temperature. The microtiter plate was then washed once with casein blocking solution and blocked with 200 μL of the same solution for one hour at room temperature. Thereafter, 100 μL of mAb C11 recognizing the glycoprotein C of HSV-1 (see E. Trybala et al., Journal of General Virology, 1994, 75, 743) was added to each well for two hours at room temperature. The plate was washed three times with phosphate buffered saline containing 0.05% polyoxyethylene (20) sorbitan monooleate. The cells were incubated with 100 μL of sheep anti-mouse IgG horseradish peroxidase for one hour at room temperature in the dark.
The plate was washed three times with 200 μL of the above-noted phosphate buffer saline preparation, and then once with 0.1 M sodium citrate (pH 4.5). Thereafter, 100 μL of orthophenylenediamine dihydrochloride (OPD, Gibco, Canada Inc.) was added to each well. The plate was agitated on a microplate shaker for 30 min in the dark. Color development was monitored at 450 nm using a microplate spectrophotometer.
SAS was used to calculate % inhibition of viral replication and to generate EC50 values.

[2] = biological target: T1, HSV-1 helicase-primase (Human herpesvirus 1, UniProt P10189+P10236); test: HSV-1 DNA-dependent ATPase assay (inhibition of HSV-1 helicase-primase); format: biochemical
T1 construct: made in house; host or cells: Sf21 insect cells triply infected with recombinant baculoviruses (UL5, UL8, UL52)
T1 sequence (P10192 whole entry): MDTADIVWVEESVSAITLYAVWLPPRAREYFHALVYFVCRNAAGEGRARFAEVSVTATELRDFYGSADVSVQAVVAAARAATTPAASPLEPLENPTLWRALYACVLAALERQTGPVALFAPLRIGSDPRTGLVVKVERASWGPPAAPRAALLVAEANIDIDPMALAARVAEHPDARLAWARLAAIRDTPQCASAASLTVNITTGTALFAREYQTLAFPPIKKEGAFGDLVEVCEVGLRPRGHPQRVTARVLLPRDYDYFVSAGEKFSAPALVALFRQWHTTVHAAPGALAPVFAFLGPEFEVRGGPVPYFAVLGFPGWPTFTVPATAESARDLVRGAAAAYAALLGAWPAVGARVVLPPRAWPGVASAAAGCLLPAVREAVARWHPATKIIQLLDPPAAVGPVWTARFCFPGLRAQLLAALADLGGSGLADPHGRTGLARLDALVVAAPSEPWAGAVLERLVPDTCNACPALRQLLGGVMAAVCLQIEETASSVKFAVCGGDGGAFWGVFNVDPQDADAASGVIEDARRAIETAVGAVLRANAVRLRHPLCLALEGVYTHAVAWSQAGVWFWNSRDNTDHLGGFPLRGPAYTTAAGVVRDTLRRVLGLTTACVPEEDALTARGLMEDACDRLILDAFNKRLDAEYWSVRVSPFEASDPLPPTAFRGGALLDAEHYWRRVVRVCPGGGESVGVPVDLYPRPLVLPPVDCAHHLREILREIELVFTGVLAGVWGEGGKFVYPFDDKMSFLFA
T1 sequence (P10236 whole entry): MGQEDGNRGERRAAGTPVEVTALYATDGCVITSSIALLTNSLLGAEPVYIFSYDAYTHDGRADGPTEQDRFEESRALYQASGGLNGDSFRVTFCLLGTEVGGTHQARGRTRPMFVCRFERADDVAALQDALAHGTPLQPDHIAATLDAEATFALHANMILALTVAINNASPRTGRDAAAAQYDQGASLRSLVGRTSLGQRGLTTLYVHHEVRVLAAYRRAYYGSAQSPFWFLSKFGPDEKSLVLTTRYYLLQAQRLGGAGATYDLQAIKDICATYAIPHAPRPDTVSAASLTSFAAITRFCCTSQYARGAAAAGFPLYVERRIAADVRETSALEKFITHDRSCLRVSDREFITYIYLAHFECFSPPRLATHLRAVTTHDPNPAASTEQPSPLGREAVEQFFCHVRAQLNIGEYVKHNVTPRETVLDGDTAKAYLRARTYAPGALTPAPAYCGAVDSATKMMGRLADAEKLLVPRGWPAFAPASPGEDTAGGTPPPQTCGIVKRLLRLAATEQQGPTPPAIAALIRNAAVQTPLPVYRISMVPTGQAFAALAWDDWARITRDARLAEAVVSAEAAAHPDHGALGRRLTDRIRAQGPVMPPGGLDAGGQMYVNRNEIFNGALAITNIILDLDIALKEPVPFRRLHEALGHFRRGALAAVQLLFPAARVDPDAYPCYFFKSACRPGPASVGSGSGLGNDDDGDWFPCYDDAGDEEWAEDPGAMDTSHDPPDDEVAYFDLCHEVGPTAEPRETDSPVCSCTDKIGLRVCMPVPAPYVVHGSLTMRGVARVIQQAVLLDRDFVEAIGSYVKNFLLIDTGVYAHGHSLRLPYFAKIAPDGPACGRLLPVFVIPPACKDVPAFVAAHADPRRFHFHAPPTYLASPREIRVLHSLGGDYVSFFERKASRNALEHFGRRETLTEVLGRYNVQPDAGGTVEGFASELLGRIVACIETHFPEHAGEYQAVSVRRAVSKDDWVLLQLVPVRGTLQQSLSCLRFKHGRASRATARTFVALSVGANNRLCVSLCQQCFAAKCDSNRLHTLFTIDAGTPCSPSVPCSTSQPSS
T1 sequence (P10189 whole entry): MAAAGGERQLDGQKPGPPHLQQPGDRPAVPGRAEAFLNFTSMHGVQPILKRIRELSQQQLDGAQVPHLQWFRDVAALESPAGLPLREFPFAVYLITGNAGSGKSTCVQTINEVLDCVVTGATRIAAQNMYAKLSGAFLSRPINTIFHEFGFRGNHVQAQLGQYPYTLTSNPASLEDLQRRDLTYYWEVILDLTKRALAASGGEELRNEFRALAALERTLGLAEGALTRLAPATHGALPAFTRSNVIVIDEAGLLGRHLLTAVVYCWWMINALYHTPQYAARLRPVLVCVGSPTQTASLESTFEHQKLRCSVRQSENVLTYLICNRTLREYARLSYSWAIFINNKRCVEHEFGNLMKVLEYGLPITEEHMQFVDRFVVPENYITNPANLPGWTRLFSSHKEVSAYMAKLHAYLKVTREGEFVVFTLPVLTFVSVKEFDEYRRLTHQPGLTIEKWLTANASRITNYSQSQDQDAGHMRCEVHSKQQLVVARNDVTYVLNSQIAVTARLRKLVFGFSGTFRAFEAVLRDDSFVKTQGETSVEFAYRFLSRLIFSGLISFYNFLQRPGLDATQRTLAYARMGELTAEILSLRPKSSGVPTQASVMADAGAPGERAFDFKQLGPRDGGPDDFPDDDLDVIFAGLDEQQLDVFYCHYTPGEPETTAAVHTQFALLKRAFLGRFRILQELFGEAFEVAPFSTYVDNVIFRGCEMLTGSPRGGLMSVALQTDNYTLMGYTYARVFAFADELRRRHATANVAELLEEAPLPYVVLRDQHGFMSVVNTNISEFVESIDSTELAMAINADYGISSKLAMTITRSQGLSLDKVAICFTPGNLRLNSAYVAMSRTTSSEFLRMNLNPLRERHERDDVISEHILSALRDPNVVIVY
Source text: A) HSV-1 DNA-Dependent ATP Assay (an in Vitro Assay Based on the Inhibition of HSV-1 Helicase-primase).
HSV-1 helicase-primase holoenzyme was produced in triply infected Sf21 cells using recombinant baculoviruses expressing the UL5, UL8 and UL52 helicase-primase subunits, as described by S. Dracheva et al., J. Biol. Chem. 1995, 270, 14148. The crude enzyme was purified by ammonium sulfate precipitation, Source 15Q® chromatography and Sephacryl® S-300 HR gel filtration (both purification systems can be obtained from Pharmacia Biotech Inc., Montreal, Quebec, Canada), see S. Dracheva et al., supra.
The DNA-dependent ATPase assay, described by J. J. Crute et al., Nucleic Acids Res. 1988, 16, 6585, was modified and used to evaluate the capability of the compounds of Group 1-formula 1 to inhibit HSV-1 helicase-primase activity. The reaction mixtures (80 μL each) contained 40 mM 4-(2-hydroxyethyl)-1-piperazineethanesulfonic acid (HEPES, pH 7.5), 10% (v/v) glycerol, 5.5 mM MgCl2, 1 mM DL-dithiothreitol (DTT), 50 μg/mL acetylated bovine serum albumin, 3.3% (v/v) DMSO, 4 mM ATP, 25 μM single-stranded M13 DNA hybridized to double-tailed 68-mer oligonucleotide and 3 μg/mL HSV-1 helicase-primase. After incubation for 20 min at 34°, formation of inorganic phosphate from hydrolysis of ATP was monitored spectrophotometrically at 650 nm using acidic ammonium molybdate/malachite green reagent, P. A. Lanzetta et al., Anal. Biochem. 1979, 100, 95. DNA-dependent ATPase activity was calculated from the net absorbance change in the presence and absence of inhibition.

[3] = Human alphaherpesvirus 1, BHK-21, Group 1 Table 1 entries

| SMILES | EC50 [1, 3] [nM] | IC50 ([2]; Group 1 Table 1 entries) [nM] | also measured |
| --- | --- | --- | --- |
| Nc1nc(-c2ccc(NC(=O)CNCc3ccc(Cl)cc3)cc2)cs1 [Example 5] | 42000 | 5400 | – |
| Cc1ccc(CNCC(=O)Nc2ccc(-c3csc(N)n3)cc2)cc1 [Example 6] | 18000 | 19000 | – |
| CNc1nc(-c2ccc(NC(=O)CNCc3ccccc3)cc2)cs1 [Example 7] | – | – | EC50 ([1]; Human alphaherpesvirus 1, BHK-21, Group 1 Table 3 entries): 4100 nM |
| COc1ccc(CNCC(=O)Nc2ccc(-c3csc(N)n3)cc2)cc1 [Example 7] | 7000 | 48000 | – |
| Nc1nc(-c2ccc(NC(=O)CNCc3cccc(F)c3)cc2)cs1 [Example 9] | – | ~5000 | – |
| Nc1nc(-c2ccc(NC(=O)CN(Cc3ccccc3F)Cc3ccccc3F)cc2)cs1 [Example 17] | 4000 | 1800 | – |
| Nc1nc(-c2ccc(NC(=O)CN(Cc3cccc(F)c3)Cc3cccc(F)c3)cc2)cs1 [Example 18] | 100 | 400 | – |
| Nc1nc(-c2ccc(NC(=O)[C@H](Cc3ccccc3)NC(=O)OCc3ccccc3)cc2)cs1 [Example 23] | – | – | EC50 ([1]; Human alphaherpesvirus 1, BHK-21, Group 1 Table 5 entries): 94 nM; IC50 ([2]; Group 1 Table 5 entries): 600 nM |
| Nc1nc(-c2ccc(NC(=O)CN(Cc3ccc(Cl)cc3)C(=O)c3ccncc3)cc2)cs1 [Example 55] | 95 | – | – |
| Nc1nc(-c2ccc(NC(=O)CN(CC3CCCCC3)C(=O)c3ccncc3)cc2)cs1 [Example 57] | 950 | – | – |
| CC(C)(C)OC(=O)N1CCC(C(=O)N(CC(=O)Nc2ccc(-c3csc(N)n3)cc2)CC2CCCCC2)CC1 [Example 61] | 1600 | – | – |
| [N-]=[N+]=Nc1ccc(C(=O)N(CC(=O)Nc2ccc(-c3csc(N)n3)cc2)Cc2ccc(Cl)cc2)cc1 [Example 65] | – | 840 | – |
| Nc1nc(-c2ccc(NC(=O)CN(Cc3ccc(Cl)cc3)C(=O)CC3CCCCC3)cc2)cs1 [Example 69] | 180 | – | – |
| Nc1nc(-c2ccc(NC(=O)CN(Cc3ccc(Cl)c(I)c3)C(=O)c3ccncc3)cc2)cs1 [Example 70] | 160 | 570 | – |
| [N-]=[N+]=Nc1ccc(C(=O)N(CC(=O)Nc2ccc(-c3csc(N)n3)cc2)Cc2ccccc2)cc1 [Example 74] | 120 | 280 | – |
| Nc1nc(-c2ccc(NC(=O)CN(CC3CCCCC3)C(=O)CC3CCCC3)cc2)cs1 [Example 75] | 240 | – | – |
| [N-]=[N+]=Nc1ccc(C(=O)N(CC(=O)Nc2ccc(-c3csc(N)n3)cc2)Cc2ccncc2)cc1 [Example 78] | 180 | – | – |
| CC(C)CN(CC(=O)Nc1ccc(-c2csc(N)n2)cc1)C(=O)C1CCCCC1 [Example 81] | 180 | – | – |
| CC(C)COC(=O)N(CC(=O)Nc1ccc(-c2csc(N)n2)cc1)Cc1ccccc1 [Example 86] | 88 | – | – |
| Nc1nc(-c2ccc(NC(=O)CN(Cc3ccccc3)S(=O)(=O)N3CCOCC3)cc2)cs1 [Example 96] | 120 | – | – |
| CN(C)c1cccc2c(S(=O)(=O)N(CC(=O)Nc3ccc(-c4csc(N)n4)cc3)Cc3ccncc3)cccc12 [Example 99] | 670 | 1600 | – |
| CC(C)(C)OC(=O)N(CC(=O)Nc1ccc(-c2csc(N)n2)cc1)CC1CCCCC1 [Example 100] | 850 | – | – |
| C[C@@H](c1ccccc1)N(CC(=O)Nc1ccc(-c2csc(N)n2)cc1)C(=O)NC(C)(C)C [Example 105] | 290 | – | – |
| COc1ccc(CN(CC(=O)Nc2ccc(-c3csc(N)n3)cc2)C(=O)c2ccncc2)cc1 [Example 150] | 120 | 2000 | – |
| Nc1nc(-c2ccc(NC(=O)CN(Cc3c(F)cccc3F)C(=O)c3ccncc3)cc2)cs1 [Example 153] | 190 | 1900 | – |
| Cc1cccc(C)c1CN(CC(=O)Nc1ccc(-c2csc(N)n2)cc1)C(=O)c1ccncc1 [Example 156] | 420 | 3500 | – |
| Nc1nc(-c2ccc(NC(=O)CN(CCc3ccccn3)C(=O)c3ccncc3)cc2)cs1 [Example 158] | 440 | 1800 | – |
| Nc1nc(-c2ccc(NC(=O)CN(Cc3cccs3)C(=O)c3ccncc3)cc2)cs1 [Example 159] | 210 | 1700 | – |
| Nc1nc(-c2ccc(NC(=O)CN(Cc3cscn3)C(=O)c3ccncc3)cc2)cs1 [Example 161] | 530 | 3400 | – |
| Nc1nc(-c2ccc(NC(=O)CN(CCc3nccs3)C(=O)c3ccncc3)cc2)cs1 [Example 163] | 680 | 2400 | – |

More lines, in order of falling EC50 [1, 3], values ahead:

| EC50 [1, 3] [nM] | IC50 ([2]; Group 1 Table 1 entries) [nM] | SMILES | also measured |
| --- | --- | --- | --- |
| 77 | 1600 | Cc1ccc(CN(CC(=O)Nc2ccc(-c3csc(N)n3)cc2)C(=O)c2ccncc2)cc1 [Example 152] | – |
| 69 | 2500 | Cc1nc(CN(CC(=O)Nc2ccc(-c3csc(N)n3)cc2)C(=O)c2ccncc2)cs1 [Example 162] | – |
| 65 | – | CN(C(=O)N(CC(=O)Nc1ccc(-c2csc(N)n2)cc1)Cc1ccccc1)C(C)(C)C [Example 94] | – |
| 55 | 450 | COc1cccc(CN(CC(=O)Nc2ccc(-c3csc(N)n3)cc2)C(=O)c2ccncc2)c1 [Example 149] | – |
| 51 | 680 | Nc1nc(-c2ccc(NC(=O)CN(CCc3cccs3)C(=O)c3ccncc3)cc2)cs1 [Example 160] | – |
| 50 | – | Nc1nc(-c2ccc(NC(=O)CN(CCc3ccccc3)C(=O)C3CCCCC3)cc2)cs1 [Example 68] | – |
| 37 | – | Nc1nc(-c2ccc(NC(=O)CN(Cc3ccccc3)C(=O)N3CCOCC3)cc2)cs1 [Example 95] | – |
| 34 | – | CC(C)(C)NC(=O)N(CC(=O)Nc1ccc(-c2csc(N)n2)cc1)Cc1ccccc1 [Example 92] | – |
| 25 | 380 | COc1ccccc1CN(CC(=O)Nc1ccc(-c2csc(N)n2)cc1)C(=O)c1ccncc1 [Example 148] | – |
| 22 | 350 | Nc1nc(-c2ccc(NC(=O)CN(Cc3cccc(F)c3)C(=O)c3ccncc3)cc2)cs1 [Example 147] | – |
| 19 | 390 | Nc1nc(-c2ccc(NC(=O)CN(Cc3ccccc3Cl)C(=O)c3ccncc3)cc2)cs1 [Example 145] | – |
| 15 | 300 | Nc1nc(-c2ccc(NC(=O)CN(Cc3ccc(F)cc3)C(=O)c3ccccc3)cc2)cs1 [Example 59] | – |
| 11 | – | Cc1ccccc1CN(CC(=O)Nc1ccc(-c2csc(N)n2)cc1)C(=O)c1ccncc1 [Example 102] | – |
| 11 | 76 | Cc1cccc(CN(CC(=O)Nc2ccc(-c3csc(N)n3)cc2)C(=O)c2ccncc2)c1 [Example 151] | – |
| 11 | 200 | Cc1ccc(C)c(CN(CC(=O)Nc2ccc(-c3csc(N)n3)cc2)C(=O)c2ccncc2)c1 [Example 155] | – |
| 10 | 40 | Cc1cc(C)cc(CN(CC(=O)Nc2ccc(-c3csc(N)n3)cc2)C(=O)c2ccncc2)c1 [Example 157] | – |
| 6 | – | Nc1nc(-c2ccc(NC(=O)CN(Cc3ccc(F)cc3)C(=O)C3CCCCC3)cc2)cs1 [Example 83] | – |
| 5 | 150 | Nc1nc(-c2ccc(NC(=O)CN(Cc3cccc(Cl)c3)C(=O)c3ccncc3)cc2)cs1 [Example 146] | – |
| 5 | 41 | Cc1cccc(CN(CC(=O)Nc2ccc(-c3csc(N)n3)cc2)C(=O)c2ccncc2)c1C [Example 154] | – |
